From patent publication US7396624B2, “Electrophotographic photoreceptor containing naphthalenetetracarboxylic acid diimide derivatives and electrophotographic imaging apparatus employing the same” (Samsung Electronics Co., Ltd., priority 2004, dated 2008)

Assay: Solubility Test (amount of methylene chloride to completely dissolve 1 g of compound)
Format: physicochemical
Conditions: room temperature, methylene chloride added dropwise while stirring
Experimental: 1 g of the compound to be tested was added to a test tube at room temperature and methylene chloride was added dropwise while stirring to determine the amount of methylene chloride required to completely dissolve 1 g of the test compound.

Compared with `CC(C)N1C(=O)c2ccc3c4c(ccc(c24)C1=O)C(=O)N(C(C)C)C3=O` [Comparative Compound (9a)], `CCC(CC)N1C(=O)c2ccc3c4c(ccc(c24)C1=O)C(=O)N(C(CC)CC)C3=O` [Comparative Compound (10a)] is lower in “Amount of methylene chloride required to dissolve 1 g of a compound” value: 25 g for the first, 17.5 g for the second.

Going from `CC(c1ccccc1)N1C(=O)c2ccc3c4c(ccc(c24)C1=O)C(=O)N(C(C)c1ccccc1)C3=O` (stereo not shown) [Compound (1)] to `CCC(c1ccccc1)N1C(=O)c2ccc3c4c(ccc(c24)C1=O)C(=O)N(C(CC)c1ccccc1)C3=O` (stereo not shown) [Compound (2)], the “Amount of methylene chloride required to dissolve 1 g of a compound” value falls from 3.5 g to 2 g.
